Reference: patent US8710246B2, “Substituted thiophene pentamers” (Biochromix Newco AB, priority 2008, dated 2014)
“Also recorded” adds a separate entry of the source.

Key:
Aβ peptide 1-42 = molecular target: T1, Aβ peptide 1-42 (Homo sapiens, UniProt P05067); test: In vitro fibrillation of Aβ peptide 1-42 followed by TEM; format: biochemical; conditions: for fibrillation morphology by TEM: 20 μM Aβ 1-42, 37° C.
T1 construct: Aβ peptide 1-42 was dissolved in hexafluoroisopropanol
Protocol: Aβ peptide 1-42 was dissolved in hexafluoroisopropanol to a concentration of 1 mg/mL and further diluted to 20 μM in Tris-HCl 5 mM, 75 mM NaCl. The inventive compounds F and G were added in concentrations from 10 to 100 μM and the samples, including references without the inventive compounds, were incubated at 37° C. to initiate fibrillation. After Oh, 20 h and 66 h aliquots were withdrawn, deposited on formvar-carbon coated TEM grids and negatively stained using uranylacetate. A Phillips CM200 run at 200 kV was used to study the progress of fibrillation in the different samples. […] (at Oh). […] These aggregates were covering most of the TEM grid and no smaller fibril or oligomer like structures could be seen. After 66 h of incubation no major change in morphology compared to the 20 h samples could be seen, sheets with separate visible fibrils were found at high density on the grid, of a typical morphology illustrated in FIG. 3.

Aβ deposits = test: Long term in vivo effects on amyloid plaques in transgenic mice, cranial window, multiphoton spectroscopy; conditions: tail vein injection, 10 mg/kg
Description: This long lasting binding to the plaques is advantageous for a long term therapeutic effect of the inventive compounds.

primary chicken neurons = test: Aβ1-42 induced lesions in primary chicken neurons, MTT viability assay; format: cell-based
Protocol: T:I 1: p-HTAA, Mw=529 g/mol, diluted in vehicle from stock solution in PBS+1.33% DMSO (10 mg/ml).
T:I 2: POWT-13, Mw=2782 g/mol, diluted in vehicle from stock solution in deionized water (40 mg/ml).
Cell source: Telencephalon neurons from 8-day-old chicken embryos (Lohman Brown hybrid)
Nutrition medium: DMEM with 4.5 g glucose/1, 5% Nu Serum, 0.01% gentamycin, 2 mM L-glutamine
Group size: n=6 for each T.I. and R.I. concentration per experiment
Lesion: 10 μM Aβ1-42 (pre-aggregated for 48 h) at DIV8 for 48 h
Evaluation of the effects: MTT on DIV 10
One-day-old fertilized eggs will be stored under appropriate conditions until start of breeding. On embryonic day 0 eggs will be transferred to the breeding incubator and under turning kept at 37.8° C. and 55% humidity until embryonic day eight. […]
Viability of cultures will be determined with the MTT assay using a plate-reader (570 nm) as described e.g. in SOP MET004. […] Since this reaction is catalysed in living cells only this assay can be used for the quantification of cell viability. […] To estimate optical density, a plate-reader (Anthos HT II or pquant) is used at wavelength 570 nm. […]
After 48 hours of incubation of T.I. and Aβ1-42 on cells (DIV10), viability of neurons will be analysed by the MTT assay.

T1 sequence (P05067 672-713 limits assumed): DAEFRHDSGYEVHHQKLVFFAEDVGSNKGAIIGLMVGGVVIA

## O=C(O)Cc1cc(-c2cccs2)sc1-c1ccc(-c2sc(-c3cccs3)cc2CC(=O)O)s1 [Compound G]
Aβ peptide 1-42; 10 μM compound, 20 h
  fibrillation morphology by TEM: no dense aggregates resembling those in the reference sample; also recorded: low density of oligomer like structures
Aβ peptide 1-42; 100 μM compound, 20 h
  fibrillation morphology by TEM: no dense aggregates resembling those in the reference sample; also recorded: low density of short branched fibrils with a very low contrast; also recorded: Short branched fibrils
Aβ peptide 1-42; 100 μM compound, 66 h
  fibrillation morphology by TEM: very few separate short proto-fibrils; also recorded: Short proto-fibrils
Aβ peptide 1-42; overall conclusion, 20 h and 66 h
  effect on the fibrillation of Aβ peptide 1-42: major effect
Aβ deposits; one week after injection
  binding to Aβ deposits in living mouse brain one week after injection: binding of the inventive compounds to AP deposits could still be observed; also recorded: bound to Aβ deposits in living mouse brain one week after injection
Aβ deposits; transgenic mice with AD-like pathology
  crossing of the blood brain barrier after intravenous injection: readily cross the blood brain barrier
Primary chicken neurons; test item added to Aβ1-42 during aggregation, then on cells 48 h, FIG. 12
  viability of neurons (MTT): better viability compared to 10 μM Aβ1-42 alone
Primary chicken neurons; test item and pre-aggregated 10 μM Aβ1-42 applied on neurons simultaneously, 48 h, FIG. 11
  viability of neurons (MTT): better viability compared to 10 μM Aβ1-42 alone
